Measurements from ChEMBL document CHEMBL1135380, “Synthesis and structure-activity relationship of 2-(aminoalkyl)-2,3,3a,8-tetrahydrodibenzo[c,f]isoxazolo[2,3-a]azepine derivatives: a novel series of 5-HT(2A/2C) receptor antagonists. Part 1” (Bioorg Med Chem Lett, 2002).

Tests used:
[1] = target: Serotonin 3 (5-HT3) receptor; assay: Binding affinity for human cloned 5-hydroxytryptamine 3 receptor; assay type: protein-complex assay
D(2) dopamine receptor = D(2) dopamine receptor (Homo sapiens, UniProt P14416); assay: Binding affinity for human cloned Dopamine receptor D2L
[2] = target: 5-hydroxytryptamine receptor 2A (Homo sapiens, UniProt P28223); assay: biochemical; assay type: cell-based, L929
Description: Binding affinity for human cloned 5-hydroxytryptamine 2A receptor expressed in L929 cells using [125I]R91150 as radioligand

[3] = target: 5-hydroxytryptamine receptor 7 (Homo sapiens, UniProt P34969); assay: Binding affinity for human cloned 5-hydroxytryptamine 7 receptor
D(3) dopamine receptor = D(3) dopamine receptor (Homo sapiens, UniProt P35462); assay: Binding affinity for human cloned Dopamine receptor D3
[4] = target: T1, Alpha-2C adrenergic receptor (Homo sapiens, UniProt P18825); assay: Binding affinity for human cloned Alpha-2C adrenergic receptor
T1 sequence (P18825 whole entry): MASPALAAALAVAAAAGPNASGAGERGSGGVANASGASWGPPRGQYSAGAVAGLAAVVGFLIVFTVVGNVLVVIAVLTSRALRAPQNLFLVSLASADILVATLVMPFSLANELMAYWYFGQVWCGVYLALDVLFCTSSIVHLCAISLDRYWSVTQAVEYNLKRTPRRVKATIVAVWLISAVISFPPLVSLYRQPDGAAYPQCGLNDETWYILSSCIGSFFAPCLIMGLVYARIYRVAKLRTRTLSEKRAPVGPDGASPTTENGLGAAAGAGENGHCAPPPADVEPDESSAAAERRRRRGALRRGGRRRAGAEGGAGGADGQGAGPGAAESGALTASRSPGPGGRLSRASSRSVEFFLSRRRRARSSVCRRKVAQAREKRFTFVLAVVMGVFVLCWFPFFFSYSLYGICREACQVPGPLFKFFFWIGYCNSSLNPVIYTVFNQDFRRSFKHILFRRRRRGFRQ

D(4) dopamine receptor = target: T2, D(4) dopamine receptor (Homo sapiens, UniProt P21917); assay: Binding affinity for human cloned Dopamine receptor D4
T2 sequence (P21917 whole entry): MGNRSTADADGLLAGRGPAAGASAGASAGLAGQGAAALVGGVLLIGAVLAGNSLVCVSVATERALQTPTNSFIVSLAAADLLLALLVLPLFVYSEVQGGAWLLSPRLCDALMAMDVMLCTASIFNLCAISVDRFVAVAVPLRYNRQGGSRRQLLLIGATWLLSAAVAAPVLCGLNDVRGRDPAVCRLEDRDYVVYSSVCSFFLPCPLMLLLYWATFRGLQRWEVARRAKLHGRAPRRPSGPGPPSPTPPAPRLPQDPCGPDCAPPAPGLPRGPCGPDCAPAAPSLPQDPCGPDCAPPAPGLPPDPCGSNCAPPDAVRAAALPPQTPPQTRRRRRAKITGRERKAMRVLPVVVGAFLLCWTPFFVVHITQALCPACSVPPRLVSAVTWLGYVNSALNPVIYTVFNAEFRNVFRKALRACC

[5] = target: T3, 5-hydroxytryptamine receptor 1A (Homo sapiens, UniProt P08908); assay: Binding affinity for human cloned 5-hydroxytryptamine 1A receptor
T3 sequence (P08908 whole entry): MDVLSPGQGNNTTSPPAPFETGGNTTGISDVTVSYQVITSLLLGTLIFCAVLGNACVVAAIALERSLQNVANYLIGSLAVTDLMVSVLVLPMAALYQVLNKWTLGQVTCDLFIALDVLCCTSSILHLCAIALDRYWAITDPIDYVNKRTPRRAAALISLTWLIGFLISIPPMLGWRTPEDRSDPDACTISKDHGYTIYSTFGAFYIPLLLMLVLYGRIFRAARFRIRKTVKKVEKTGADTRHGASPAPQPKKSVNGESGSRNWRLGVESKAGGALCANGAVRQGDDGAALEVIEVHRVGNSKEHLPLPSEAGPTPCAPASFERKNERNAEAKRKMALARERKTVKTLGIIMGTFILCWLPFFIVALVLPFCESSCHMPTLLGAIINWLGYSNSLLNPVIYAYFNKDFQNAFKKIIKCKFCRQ

[6] = target: T4, Alpha-1A adrenergic receptor (Homo sapiens, UniProt P35348); assay: Binding affinity for human cloned Alpha-1A adrenergic receptor
T4 sequence (P35348 whole entry): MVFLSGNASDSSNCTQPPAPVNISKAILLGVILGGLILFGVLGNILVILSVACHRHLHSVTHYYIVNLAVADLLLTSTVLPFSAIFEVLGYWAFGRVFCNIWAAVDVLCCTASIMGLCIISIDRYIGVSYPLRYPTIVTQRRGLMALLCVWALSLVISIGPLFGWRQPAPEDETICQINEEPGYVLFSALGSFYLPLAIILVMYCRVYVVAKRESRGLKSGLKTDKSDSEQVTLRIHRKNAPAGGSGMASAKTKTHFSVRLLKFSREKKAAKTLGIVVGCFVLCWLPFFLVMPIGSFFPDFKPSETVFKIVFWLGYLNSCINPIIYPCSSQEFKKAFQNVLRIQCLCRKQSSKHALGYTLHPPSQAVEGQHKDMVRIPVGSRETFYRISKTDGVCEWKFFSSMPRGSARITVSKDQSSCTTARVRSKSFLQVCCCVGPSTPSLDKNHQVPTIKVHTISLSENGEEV

[7] = target: T5, Alpha-2A adrenergic receptor (Homo sapiens, UniProt P08913); assay: Binding affinity for human cloned Alpha-2A adrenergic receptor
T5 sequence (P08913 whole entry): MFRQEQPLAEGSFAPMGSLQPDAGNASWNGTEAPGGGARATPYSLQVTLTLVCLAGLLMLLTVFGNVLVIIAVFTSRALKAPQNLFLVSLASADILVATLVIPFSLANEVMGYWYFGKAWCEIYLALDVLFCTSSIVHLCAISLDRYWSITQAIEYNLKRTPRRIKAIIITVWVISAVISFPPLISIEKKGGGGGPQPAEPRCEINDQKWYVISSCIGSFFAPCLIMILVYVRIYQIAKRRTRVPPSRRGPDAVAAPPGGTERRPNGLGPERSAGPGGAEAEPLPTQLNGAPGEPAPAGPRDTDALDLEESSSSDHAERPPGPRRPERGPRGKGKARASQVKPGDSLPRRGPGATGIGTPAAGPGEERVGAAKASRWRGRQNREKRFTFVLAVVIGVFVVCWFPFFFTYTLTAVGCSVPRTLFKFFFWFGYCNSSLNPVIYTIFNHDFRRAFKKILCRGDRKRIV

[8] = target: T6, 5-hydroxytryptamine receptor 2C (Rattus norvegicus) (UniProt P08909); assay: In vivo activity in rat mCPP challenge test following p.o. administration.; assay type: functional, organism-based
T6 sequence (whole entry): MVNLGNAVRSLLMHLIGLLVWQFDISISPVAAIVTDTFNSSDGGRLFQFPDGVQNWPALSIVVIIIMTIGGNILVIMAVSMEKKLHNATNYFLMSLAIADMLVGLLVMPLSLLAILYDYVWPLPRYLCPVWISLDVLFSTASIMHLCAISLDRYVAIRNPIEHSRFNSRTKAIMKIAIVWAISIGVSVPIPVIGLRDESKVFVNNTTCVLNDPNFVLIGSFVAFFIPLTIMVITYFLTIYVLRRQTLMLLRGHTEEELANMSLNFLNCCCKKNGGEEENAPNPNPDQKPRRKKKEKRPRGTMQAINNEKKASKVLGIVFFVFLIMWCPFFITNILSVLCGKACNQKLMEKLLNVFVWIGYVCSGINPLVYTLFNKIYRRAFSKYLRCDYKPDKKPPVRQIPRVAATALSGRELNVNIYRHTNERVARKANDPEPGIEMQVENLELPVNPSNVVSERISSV

[9] = target: 5-hydroxytryptamine receptor 1D (Homo sapiens, UniProt P28221); assay: Binding affinity for human cloned 5-hydroxytryptamine 1D receptor
[10] = target: T7, 5-hydroxytryptamine receptor 2C (Homo sapiens, UniProt P28335); assay: Binding affinity for human cloned 5-hydroxytryptamine 2C receptor expressed in CHO cells using [3H]mesulergine as radioligand; assay type: cell-based
T7 sequence (P28335 whole entry): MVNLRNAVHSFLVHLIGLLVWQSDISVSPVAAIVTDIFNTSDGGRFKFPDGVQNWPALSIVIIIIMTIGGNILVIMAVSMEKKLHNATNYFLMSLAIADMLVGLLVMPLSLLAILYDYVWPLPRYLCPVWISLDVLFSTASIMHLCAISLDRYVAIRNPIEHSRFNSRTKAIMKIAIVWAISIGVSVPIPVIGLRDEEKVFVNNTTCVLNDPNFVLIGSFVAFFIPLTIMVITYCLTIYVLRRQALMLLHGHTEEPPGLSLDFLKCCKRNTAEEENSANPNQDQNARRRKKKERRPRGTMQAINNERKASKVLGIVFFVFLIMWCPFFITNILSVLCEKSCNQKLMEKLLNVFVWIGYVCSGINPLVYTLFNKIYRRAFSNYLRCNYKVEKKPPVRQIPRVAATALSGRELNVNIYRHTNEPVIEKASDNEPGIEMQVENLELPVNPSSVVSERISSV

Rattus norvegicus = assay: In vivo activity in mCPP challenge test were performed in male Wistar rats by subcutaneous administration; assay type: functional; details: Rattus norvegicus, sc; read-out: ED50
Histamine H1 receptor = Histamine H1 receptor (Homo sapiens, UniProt P35367); assay: Binding affinity for human cloned Histamine H1 receptor expressed in CHO cells using [3H]pyrilamine as radioligand; assay type: cell-based
Sequence of Histamine H1 receptor (P35367 whole entry): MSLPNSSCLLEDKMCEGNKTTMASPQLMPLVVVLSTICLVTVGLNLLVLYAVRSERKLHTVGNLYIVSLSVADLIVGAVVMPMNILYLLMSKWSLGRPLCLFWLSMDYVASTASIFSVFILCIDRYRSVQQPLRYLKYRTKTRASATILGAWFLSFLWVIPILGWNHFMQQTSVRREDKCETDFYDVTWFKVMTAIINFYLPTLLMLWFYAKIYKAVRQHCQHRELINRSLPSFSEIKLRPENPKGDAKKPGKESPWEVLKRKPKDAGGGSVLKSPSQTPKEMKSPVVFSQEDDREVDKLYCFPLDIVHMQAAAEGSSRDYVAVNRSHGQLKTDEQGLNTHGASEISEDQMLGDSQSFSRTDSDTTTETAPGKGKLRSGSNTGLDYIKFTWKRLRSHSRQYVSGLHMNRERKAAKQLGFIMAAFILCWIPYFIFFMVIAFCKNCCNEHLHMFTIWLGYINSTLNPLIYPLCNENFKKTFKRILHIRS

Sequence of 5-hydroxytryptamine receptor 7 (P34969 whole entry): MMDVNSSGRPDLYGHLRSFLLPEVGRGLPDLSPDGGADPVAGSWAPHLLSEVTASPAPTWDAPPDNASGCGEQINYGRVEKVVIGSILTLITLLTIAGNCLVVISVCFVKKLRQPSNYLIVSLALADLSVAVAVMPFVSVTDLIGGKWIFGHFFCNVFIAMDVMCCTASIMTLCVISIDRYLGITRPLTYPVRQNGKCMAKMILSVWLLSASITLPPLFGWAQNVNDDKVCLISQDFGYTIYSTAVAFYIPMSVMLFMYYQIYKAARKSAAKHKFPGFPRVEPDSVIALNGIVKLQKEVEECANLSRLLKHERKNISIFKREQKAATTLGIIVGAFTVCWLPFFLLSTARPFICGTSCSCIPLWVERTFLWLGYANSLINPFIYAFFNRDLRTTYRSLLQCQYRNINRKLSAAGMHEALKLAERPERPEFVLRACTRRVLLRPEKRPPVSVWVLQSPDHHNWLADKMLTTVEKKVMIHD
Sequence of 5-hydroxytryptamine receptor 1D (P28221 whole entry): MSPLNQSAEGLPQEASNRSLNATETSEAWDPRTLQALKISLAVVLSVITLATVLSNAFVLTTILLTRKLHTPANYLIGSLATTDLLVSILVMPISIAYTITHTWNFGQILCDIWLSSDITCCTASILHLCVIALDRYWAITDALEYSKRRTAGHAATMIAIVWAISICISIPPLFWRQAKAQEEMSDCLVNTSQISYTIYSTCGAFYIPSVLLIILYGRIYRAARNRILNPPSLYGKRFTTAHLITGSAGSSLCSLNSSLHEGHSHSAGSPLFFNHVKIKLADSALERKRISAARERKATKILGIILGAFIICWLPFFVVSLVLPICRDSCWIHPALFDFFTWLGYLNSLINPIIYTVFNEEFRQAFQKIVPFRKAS
Sequence of D(3) dopamine receptor (P35462 whole entry): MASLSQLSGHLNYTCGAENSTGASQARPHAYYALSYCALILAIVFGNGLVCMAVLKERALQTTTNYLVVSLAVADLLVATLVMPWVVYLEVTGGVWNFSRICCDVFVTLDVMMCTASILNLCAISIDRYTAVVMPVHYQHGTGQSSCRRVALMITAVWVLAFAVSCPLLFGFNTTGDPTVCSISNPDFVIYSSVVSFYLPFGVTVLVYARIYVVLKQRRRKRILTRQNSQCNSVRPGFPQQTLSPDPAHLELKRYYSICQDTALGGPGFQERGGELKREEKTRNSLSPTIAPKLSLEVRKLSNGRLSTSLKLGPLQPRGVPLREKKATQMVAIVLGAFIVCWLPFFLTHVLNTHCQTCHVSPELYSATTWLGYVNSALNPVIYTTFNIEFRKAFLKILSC
Sequence of 5-hydroxytryptamine receptor 2A (P28223 whole entry): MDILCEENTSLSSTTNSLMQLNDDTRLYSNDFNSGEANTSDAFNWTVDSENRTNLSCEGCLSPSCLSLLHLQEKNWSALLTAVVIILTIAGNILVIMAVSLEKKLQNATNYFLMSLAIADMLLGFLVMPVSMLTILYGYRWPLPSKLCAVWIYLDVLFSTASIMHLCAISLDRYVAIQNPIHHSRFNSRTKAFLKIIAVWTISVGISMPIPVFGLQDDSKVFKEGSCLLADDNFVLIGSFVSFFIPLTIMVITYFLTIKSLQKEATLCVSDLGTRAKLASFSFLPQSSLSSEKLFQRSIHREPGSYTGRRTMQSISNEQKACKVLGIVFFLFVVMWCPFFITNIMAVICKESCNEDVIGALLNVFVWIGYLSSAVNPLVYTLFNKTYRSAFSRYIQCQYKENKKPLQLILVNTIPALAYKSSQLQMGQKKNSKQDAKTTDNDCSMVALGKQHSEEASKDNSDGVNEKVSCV
Sequence of D(2) dopamine receptor (P14416 whole entry): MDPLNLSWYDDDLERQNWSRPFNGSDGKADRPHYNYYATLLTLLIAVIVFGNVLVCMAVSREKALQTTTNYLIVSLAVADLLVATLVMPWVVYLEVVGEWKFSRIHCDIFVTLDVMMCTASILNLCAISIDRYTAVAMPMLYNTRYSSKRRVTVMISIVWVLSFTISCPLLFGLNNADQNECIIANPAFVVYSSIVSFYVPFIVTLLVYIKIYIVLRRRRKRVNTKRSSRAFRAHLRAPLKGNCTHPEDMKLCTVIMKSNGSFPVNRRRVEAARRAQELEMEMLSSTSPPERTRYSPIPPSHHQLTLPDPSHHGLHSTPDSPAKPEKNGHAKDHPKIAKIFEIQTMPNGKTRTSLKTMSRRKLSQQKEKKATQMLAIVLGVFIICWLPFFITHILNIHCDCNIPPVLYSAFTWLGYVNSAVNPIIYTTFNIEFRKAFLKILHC

In the case of `CNCC1CC2c3ccccc3Cc3ccccc3N2O1` (stereo not given), the pIC50 [1] is reported as < 6, the IC50 (D(2) dopamine receptor) is reported as 1700 nM and the IC50 [2] is reported as 13.2 nM. The IC50 [3] was 18.6 nM, the IC50 (D(3) dopamine receptor) was 339 nM and the IC50 [4] was > 1000 nM. For the same compound, the IC50 (D(4) dopamine receptor) was 302 nM, the IC50 [5] was > 1000 nM and the IC50 [6] was 191 nM. The IC50 [7] was 437 nM, the ED50 [8] was > 2.5 mg/kg and the IC50 [9] was > 1000 nM. The IC50 [10] was 7.08 nM, the ED50 (Rattus norvegicus) was 0.16 mg/kg and the IC50 (Histamine H1 receptor) was 10.7 nM.
